Holding throughout (assay type): biochemical
Test [1] deals with Factor IXa (Homo sapiens, UniProt P00740). Kind of test: Factor IXa-1 Stage clotting assay. The protocol:
The Factor IXa-1 Stage assay was conducted essentially as the Factor Xa-1 Stage clotting assay above, except that Factor Xa was omitted, and Factor IXa was added in its place. In that assay, the IC50 for peptides X404-418, X415-429, IX395-409, IX400-414, IX315-330, and IX321-335 were 50, 30, 25, 50, 30 and 30.

Test [2] concerns the target T1, tenase (Homo sapiens, UniProt P00740).
T1 construct: 30 μl of 3.5 nM factor IXaβ (Enzyme Research Labs) in BBS+OV; purchased Enzyme Research Labs (factor IXaβ, factor X); Armour Pharmaceutical, Chicago (Monoclate P)
The test is described as follows: tenase assay (Factor Xa generation). Particulars: read-out: IC50 inhibition of tenase. The protocol: The tenase assay was conducted both in the presence and absence of Factor VIIIa. The procedure for the tenase assay varied depending on this variable and is described hereafter.
Peptides prepared in Example 1 were dissolved in water and then 1/2 into 50 mM Barbital, 200 mM NaCl, 0.2% NaN3, 2.5 mg/ml Ovalbumin (5 times recrystallized, salt free, from American Biorganics Inc., New York, pH=7.5). […]. Before using them, they were made 250 μM into BBs +1.25 mg/ml Ovalbumin (BBS+OV) containing CaCl2 for a final concentration of 25 mM and they were preincubated for 10 minutes at 37° C. These vesicles were allowed to cool to room temperature before being added to the reaction mixture. Monoclate P (Armour Pharmaceutical, Chicago) 114 U VIII:C/ml frozen in water was thawed at 37° C. and immediately diluted to 6 U/ml into BBS+OV (22° C.). A 0.35 nM thrombin-containing solution (Enzyme Research Labs., Southbend, Ind.) was prepared by admixing 1/100 volume of stock solution containing 35 nM in BBS+OV, and maintained for 3 minutes at 22° C. Thrombin activity was stopped by adding 1/100 volume of a 50 μM stock solution in 1 mM HCl of Phe-Pro-Arg-Chloromethyl ketone (PPACK, Bachem Feinchmikallen AG, Bubendorf, Switzerland). […] The thrombin treated Monoclate P was used immediately in the Xa generation assay.
For the assay, 30 μl of peptide dilutions or BBS+OV as 0 μM peptide control were admixed with 30 μl of thrombin-treated Monoclate P and maintained 10 minutes at 22° C. Then 30 μl of Cacl2 -phospholipid vesicles prepared as described above were added, followed immediately by 30 μl of 3.5 nM factor IXaβ (Enzyme Research Labs) in BBS+OV. The reaction was started by adding 30 μl of 250 nM factor X (Enzyme Research Labs) in BBS+OV. All reagents were at 22° C.
Aliquots of 20 μl were drawn at time 0, 1, 2, 3, 4 and 5 minutes of maintenance at 22° C. and diluted to 160 μl of 50 mM TrisHCl, 100 mM NaCl, 5 mM EDTA and 0.1 mg/ml Ovalbumin pH=8.0. Once all aliquots were drawn, 20 μl 2.0 mM S-2765 were added and the increase of A 405 at 22° C. was recorded in a model EL 312 Microplate Biokinetics Reader (BIO-TEK Instruments Inc., Vermont).
No amidolytic activity was observed when factor X was omitted from the reaction mixture.
Phospholipid vesicles prepared as described above were admixed with BBS+OV containing CaCl2 to obtain final concentrations of 312.5 μM vesicles and 20 mM CaCl2, and were premaintained for 10 minutes at 37° C. Before admixing, all the reagents were maintained for 5 minutes in a 37° C. waterbath.
For the assay, 100 μl of the phospholipid CaCl2 mix were admixed with 100 μl of peptide dilutions in BBS+OV or BBS+OV (as 0 μM peptide control) and 25 μl of 100 nM factor IXaβ in BBS+OV. The reaction was started immediately by adding 25 μl of 10 μM factor X in BBS+OV. All experiments were done at 37° C.
Aliquots of 40 μl were drawn at time 0, 5, 10, 15, 20 and 25 minutes of incubation at 37° C. and diluted to 140 μl 50 mM TrisHCl, 100 mM NaCl, 10 mM EDTA, and 1.25 mg/ml Ovalbumin pH=8.0. Once all aliquots were drawn, 20 μl 20.0 mM S-2765 were added and the increase of A 405 at 22° C. was recorded in a model EL 312 Microplate Biokinetics Reader.

The target of test [3] is T2, Factor Xa (Homo sapiens, UniProt P00742).
T2 construct: purchased Enzyme Research Laboratories, Southbend, Ind
Kind of test: Factor Xa clotting activity in NHP without added APC (Factor Xa-1 Stage clotting assay).

Test [4] deals with APC (Homo sapiens, UniProt P04070). The test is described as follows: APTT and Xa-1-stage coagulation assays, inhibition of APC anticoagulant activity. Also noted: Protein C consists of a 155 amino acid residue light chain and a 262 amino acid residue heavy chain; from tissue; host or cells: human plasma factor IX concentrate. The conditions noted are these: read-out: IC90 ** μM (concentration of peptide that inhibits 90% of APC anticoagulant activity). Here is the method:
The effect of the synthetic peptides on APC anticoagulant activity were determined using the APTT assay in the presence of either normal citrate anticoagulated plasma (NHP) or protein S depleted plasma (PSDP). The assays were performed essentially as described. See Marlar et al., Blood, 59:1067-1072 […]; Suzuki et al., J. Biol. Chem., 258:163-168 (1983); Gruber et al., Blood, 73:639-642 (1989); Ohlin et al., Biochem., 29:644-651 (1990). NHP was purchased from George King Bio-Medical, Inc. (Overland Park, Kans.). PSDP was prepared from a normal human citrate-anticoagulated plasma pool from ten healthy donors. Protein S was immunodepleted from the NHP by immunoaffinity chromatography of NHP over an anti-protein S antibody column to form PSDP. The anti-protein S antibody column was prepared by coupling 100 mg of a monoclonal, high-affinity, calcium-independent anti-PS antibody, designated S7, to 30 ml of CNBr-activated Sepharose 4B (Pharmacia) as described in Example 2cl).
For the APTT assay, APC was prepared as described in Example 2c2). […] The concentration of the APC used in the assay was initially optimized with respect to the sensitivity of the assay towards APC-induced prolongation of clotting time compared to clotting time without APC.
Once the optimal concentration of APC was determined, peptides from the heavy and light chains of PC and control scrambled peptides listed below in Example 5a2) in Tables 6 and 7 were then separately admixed for a final concentration of 500 μM with 10 nM APC in 100 μl of TBS-BSA at pH 7.4 to form peptide-APC admixtures. Peptides were prepared as described in Example 1. The resulting admixtures were maintained for ten minutes at 37° C. Separate aliquots of peptides maintained under the same conditions in the absence of APC served as controls for the inhibitory effect of synthetic peptides on APC anticoagulant activity. After the maintenance period, 100 μl of NHP and 100 μl APTT-reagent Thrombosil (Ortho Diagnostics, Raritan, N.J.) were admixed into each peptide admixture and maintained for 200 seconds at 37° C. to form a pre-coagulation admixture. In some experiments, PSDP was used in the place of NHP to determine the effect of Protein S on the assay system. Coagulation was then initiated by the admixture of 100 μl of 30 mM CaCl2 in TBS prewarmed to 37° C. to each of the pre-coagulation admixtures. The time for clot formation was measured by an Electra 700 Automatic Coagulation Timer (Medical Laboratory Automation, Inc., Mount Vernon, N.Y.). Each peptide's effect was determined in duplicate.
For peptides at a concentration of 500 μM that inhibited at least 50% of APC anticoagulant activity, analysis of dose-response was subsequently conducted.
For testing the inhibition of the synthetic peptides on APC activity described above, Xa-1-stage coagulation assays were also performed as described. See Seegers et al., Thrombosis Res., 13:233-243 (1978); Marlar et al., supra; and Walker et al., J. Biol. Chem., 265:1484-1489 (1990).

Where two headings read alike, the source gives them in different places. No end group written: not given here.

Chain of Factor IXa (P00740 47-191 limits assumed): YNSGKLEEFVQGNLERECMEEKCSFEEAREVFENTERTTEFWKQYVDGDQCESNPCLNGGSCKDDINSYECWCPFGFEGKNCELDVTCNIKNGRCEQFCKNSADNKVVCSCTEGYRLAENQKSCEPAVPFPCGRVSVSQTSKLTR
Chain of Factor IXa (P00740 227-461 limits assumed): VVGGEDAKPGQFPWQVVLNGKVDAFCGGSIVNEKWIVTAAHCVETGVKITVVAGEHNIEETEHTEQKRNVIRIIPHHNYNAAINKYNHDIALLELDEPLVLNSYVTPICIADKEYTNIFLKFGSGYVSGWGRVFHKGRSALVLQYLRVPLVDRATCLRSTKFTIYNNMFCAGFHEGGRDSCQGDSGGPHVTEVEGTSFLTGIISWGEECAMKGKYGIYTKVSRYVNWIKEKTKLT
T1 sequence (P00740 47-191): as the sequence (P00740 47-191 limits assumed) above
T1 sequence (P00740 227-461): as the sequence (P00740 227-461 limits assumed) above
T2 sequence (P00742 41-179 limits assumed): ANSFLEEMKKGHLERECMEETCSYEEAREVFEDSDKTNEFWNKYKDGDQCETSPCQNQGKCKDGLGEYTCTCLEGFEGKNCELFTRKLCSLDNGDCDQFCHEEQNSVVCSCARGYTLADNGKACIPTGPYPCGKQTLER
T2 sequence (P00742 235-488 limits assumed): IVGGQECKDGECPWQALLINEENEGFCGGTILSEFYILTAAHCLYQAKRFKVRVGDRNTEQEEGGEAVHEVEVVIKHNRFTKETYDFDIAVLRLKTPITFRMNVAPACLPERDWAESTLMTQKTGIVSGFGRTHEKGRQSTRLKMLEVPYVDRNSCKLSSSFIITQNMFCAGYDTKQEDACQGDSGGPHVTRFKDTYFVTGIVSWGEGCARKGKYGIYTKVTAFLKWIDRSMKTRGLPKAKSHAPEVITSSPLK
Chain of APC (P04070 43-197 limits assumed): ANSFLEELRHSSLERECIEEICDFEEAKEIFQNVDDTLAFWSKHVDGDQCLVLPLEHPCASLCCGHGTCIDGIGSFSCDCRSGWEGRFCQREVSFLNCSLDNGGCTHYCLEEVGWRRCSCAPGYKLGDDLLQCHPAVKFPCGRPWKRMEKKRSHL
Chain of APC (P04070 212-450 limits assumed): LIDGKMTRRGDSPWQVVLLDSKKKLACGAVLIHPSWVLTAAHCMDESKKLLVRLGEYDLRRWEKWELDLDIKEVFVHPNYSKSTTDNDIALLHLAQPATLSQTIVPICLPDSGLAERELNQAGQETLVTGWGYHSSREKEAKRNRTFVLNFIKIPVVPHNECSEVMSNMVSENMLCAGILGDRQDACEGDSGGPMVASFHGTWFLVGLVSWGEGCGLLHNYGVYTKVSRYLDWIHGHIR

The IC50 is the concentration that gives 50% inhibition. For the substance “ARKGKYGIYTKVTAF-NH2 [X404-418, Ala-Arg-Lys-Gly-Lys-Tyr-Gly-Ile-Tyr-Thr-Lys-Val-Thr-Ala-Phe]”, the values for the IC50 in test [1], in test [2] (presence of Factor VIIIa) and in test [3] were 50 µM, about 150 µM and 50 µM, respectively.
For “EKGRQSTRLKMLEVPY-NH2 [X329-344, Glu-Lys-Gly-Arg-Gln-Ser-Thr-Arg-Leu-Lys-Met-Leu-Glu-Val-Pro-Tyr]”, in test [3], half-maximal inhibition (IC50) was put at 500 µM.
Still for that read-out and setting: as for “GKGQPSVLQVVNLPI-NH2 [PT473-487, Gly-Lys-Gly-Gln-Pro-Ser-Val-Leu-Gln-Val-Val-Asn-Leu-Pro-Ile]”, the figure is 25 µM.
Take “HKGRSALVLQYLRVPL-NH2 [IX315-330, His-Lys-Gly-Arg-Ser-Ala-Leu-Val-Leu-Gln-Tyr-Leu-Arg-Val-Pro-Leu]”: the results for the IC50 in test [1], in test [2] (absence of VIIIa) and in test [2] (presence of Factor VIIIa) were 30 µM, 40 to 60 µM and about 2 µM, respectively.
Consider “KVSRYVNWIKEKTKL-NH2 [IX400-414, Lys-Val-Ser-Arg-Tyr-Val-Asn-Trp-Ile-Lys-Glu-Lys-Thr-Lys-Leu]”, for which the IC50 in test [1] was 50 µM; in test [2] (presence of Factor VIIIa), 100 to 140 µM.
Take “LVLQYLRVPLVDRAT-NH2 [IX321-335, Leu-Val-Leu-Gln-Tyr-Leu-Arg-Val-Pro-Leu-Val-Asp-Arg-Ala-Thr]”: the IC50 in test [1] was 30 µM; in test [2] (presence of Factor VIIIa) it was 100 to 140 µM.
As to NLKETWTANVGKGQP [PT463-478], in test [3], the half-inhibitory concentration (IC50) was over 500 µM.
Turning to “QVVNLPIVERPVSKD-NH2 [PT481-495, Gln-Val-Val-Asn-Leu-Pro-Ile-Val-Glu-Arg-Pro-Val-Ser-Lys-Asp]”, in test [3], the IC50 was over 500 µM.
With VLNFIKIPVVPHNEC-NH2 [PC317-331], the IC90 in test [4] amounted to 500 µM.
In the case of “VTAFLKWIDRSMKTR-NH2 [X415-429, Val-Thr-Ala-Phe-Leu-Lys-Trp-Ile-Asp-Arg-Ser-Met-Lys-Thr-Arg]”, the IC50 in test [1] is 30 µM; in test [2] (presence of Factor VIIIa), about 45 µM; in test [3], 115 µM.
Turning to “YGFYTHVFRLKKWIQ-NH2 [PT557-571, Tyr-Gly-Phe-Tyr-Thr-His-Val-Phe-Arg-Leu-Lys-Lys-Trp-Ile-Gln]”, half-maximal inhibition in test [3] (IC50) was put at 50 µM.
With “YGIYTKVSRYVNWIK-NH2 [IX395-409, Tyr-Gly-Ile-Tyr-Thr-Lys-Val-Ser-Arg-Tyr-Val-Asn-Trp-Ile-Lys]”, the IC50 is 25 µM in test [1], 40 to 60 µM in test [2] (absence of VIIIa) and about 6 µM in test [2] (presence of Factor VIIIa).

Source of the values: patent US5968751A, “Method for detecting the presence of protein C antibody in a fluid sample” (The Scripps Research Institute, priority 1997, dated 1999).
